US8546416B2, “3-spirocyclic piperidine derivatives as ghrelin receptor agonists” (Novartis AG, priority 2011, dated 2013)

Key:
[1] = molecular target: T1, human recombinant ghrelin receptor (GHS-R1a) (Homo sapiens, UniProt Q92847); assay: hGHS-R1a Ca assay (Fluo-4 calcium assay in CHO-K1 cells); assay type: cell-based; details: for EC50: CHO-K1 cells expressing human GHS-R1a, agonist dose response up to 30 μM
T1 construct: host or cells: CHO-K1
Description: (§1) Chinese hamster ovary (CHO-K1) cells expressing human recombinant ghrelin receptor (GHS-R1a) were purchased from Euroscreen (ES-410-C) and propagated in UltraCHO medium containing glutamine and supplemented with 1% heat inactivated foetal calf serum (FCS), 100 U/ml penicillin, 100 mg/l streptomycin and 0.8 g/l geneticin. Cells were sub-cultured twice a week with a 1:10 dilution. For passaging, cells were washed with 1×DPBS without calcium and magnesium, trypsinised for 10 min with 0.05% Trypsin/EDTA and resuspended in cell culture medium.
Cells were diluted to achieve 1×10^6 cells/ml, seeded in 384-well black clear bottom CellBind plates at 25000 cells/well (25 ul) and incubated overnight at 37° C./5% CO2 Cells were expected to be 85-90% confluent on the day of assay (checked under the microscope) to ensure a high quality assay. Media was manually removed and 40 μl of loading solution containing probenecid and Fluo-4 no wash dye (a calcium indicator, Invitrogen F36206) were added to each well. After 30 min at 37° C. followed by another 30 min at RT, cpds were added to the wells. To generate a dose response up to 30 μM, 10 mM compound stocks in 100% (v/v) DMSO were firstly diluted in 50% (v/v) DMSO. Then, serial dilutions aimed at a full logarithmic dose responses (8 point) were performed in assay buffer [1×HBSS, 20 mM Hepes, 0.1% (w/v) BSA] to give 2.5% (v/v) DMSO and 5× final compound concentrations. The final assay DMSO concentration was 0.5% (v/v). After loading the cells with Fluo-4 containing solution, plates were read on a CellLux instrument (Perkin Elmer). A protocol set up to add 10 μl of 5× compound and to read the plate for 60 sec after adding the compound at 17th sec was used. Fluorescence excitation took place at 494 nm and emission at 516 nm. EC50 values of agonists were calculated by fitting the percent stimulation over background [(Max−Min)/Min] using the nonlinear logistic function of the Prism 5 software (GraphPad, USA).

[2] = molecular target: T1, human recombinant ghrelin receptor (GHS-R1a); assay: hGHS-R1a cAMP assay (HTRF cAMP dynamic 2 kit, CHO-hGHS-R1a cells); assay type: cell-based; details: 60 min incubation, dose response up to 30 μM
Description: as §1
The Homogeneous Time-Resolved Fluorescence (HTRF) cAMP dynamic 2 kit (Cisbio International, France) was used as follows. CHO-hGHS-R1a or CHO-rGHS-R1a cells were seeded in a volume of 25 μl culture media at 10,000 cells/well (400,000 cells/ml) in Greiner white 384-well high volume plates and incubated overnight (18-24 h) at 37° C./5% CO2. Then, media was removed and 6 μl assay buffer [HBSS, 10 mM Hepes, 0.2% (w/v) BSA, 1.7 mM IBMX, (pH7.4)] were added to the wells. To generate a dose response up to 30 μM, 10 mM compound stocks in 100% (v/v) DMSO were firstly diluted in 50% (v/v) DMSO followed by a further dilution into assay buffer. Then, 4 μl of 2.5× compound (dose response as 9 point log serial dilution in assay buffer from 30 μM as maximum concentration) were added to each well achieving a final DMSO assay concentration of 0.8% (v/v). 0.1 μM forskolin was added as positive control. After 30 min (rGHS-R1a cell line) or 60 min (hGHS-R1a cell line) incubation at 37° C./5% CO2, 5 μl of cAMP-d2 and 5 μl of anti-cAMP antibody-cryptate, (both made in lysis buffer), were added to the plate followed by 1 h incubation at RT. During this time, cAMP produced by the cells competed with cAMP-d2 for the anti-cAMP antibody-cryptate molecule. Then, the plate was read on the Pherastar instrument (BMG, Germany) at two different emission wavelengths (620 and 650 nm). Increasing levels of endogenous cAMP produced by cells could be followed by a decrease of FRET fluorescent signal and viceversa. Values represented by a change in arbitrary fluorescence ratios (665/620) were converted into cAMP concentrations by using a standard curve, the reagents for which were supplied with the kit. EC50 values of agonists were calculated using the nonlinear logistic function of the Prism 5 software (GraphPad, USA). Emax were expressed as relative values of the ghrelin response, which was defined as 100%.

T1 sequence (Q92847 whole entry): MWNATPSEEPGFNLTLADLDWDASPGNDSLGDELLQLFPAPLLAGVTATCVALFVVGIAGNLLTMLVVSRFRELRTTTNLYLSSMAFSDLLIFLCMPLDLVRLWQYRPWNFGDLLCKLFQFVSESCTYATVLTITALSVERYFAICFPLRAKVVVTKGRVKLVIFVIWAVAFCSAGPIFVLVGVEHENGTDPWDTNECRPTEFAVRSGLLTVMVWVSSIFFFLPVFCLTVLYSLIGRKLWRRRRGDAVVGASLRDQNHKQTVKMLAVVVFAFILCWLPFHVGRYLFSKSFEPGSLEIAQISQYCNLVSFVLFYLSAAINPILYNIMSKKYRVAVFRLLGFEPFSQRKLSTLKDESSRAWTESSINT

Compound	EC50 [1]	EC50 [2]	Emax ([1]; CHO-K1, relative to Emax induced by MK-0677 (defined as 100%))
CC(C)(C)CN1CC(c2ccccc2)C2(CCCN(C(=O)[C@@H](COCc3ccccc3)NC(=O)C(C)(C)N)C2)C1=O (single isomer, unassigned) [Example 1.40]	0.0007 µM	0.034 µM	
Cc1ccc(C2CN(C)C(=O)C23CCCN(C(=O)[C@@H](COCc2ccccc2)NC(=O)C(C)(C)N)C3)cc1 (single isomer, unassigned) [Example 1.53]	0.00011 µM	0.036 µM	
Cc1ccc(COC[C@@H](NC(=O)C(C)(C)N)C(=O)N2CCCC3(C2)C(=O)N(C)CC3c2ccccc2)cc1 (single isomer, unassigned) [Example 1.55]	0.00013 µM	0.072 µM	
CN1CC(c2ccc(F)cc2)C2(CCCN(C(=O)[C@@H](COCc3ccc(Cl)cc3)NC(=O)C(C)(C)N)C2)C1=O (single isomer, unassigned) [Example 1.57]	0.00022 µM	0.043 µM	
CN1CC(c2ccccc2)C2(CCCN(C(=O)[C@@H](COCC3CCCCC3)NC(=O)C(C)(C)N)C2)C1=O (single isomer, unassigned) [Example 1.60]	0.0003 µM	0.047 µM	
CN1CN(c2ccccc2)C2(CCCN(C(=O)[C@@H](COCc3ccccc3)NC(=O)C(C)(C)N)C2)C1=O (single isomer, unassigned) [Example 1.61]	0.0029 µM	0.517 µM	
COc1ccc(COC[C@@H](NC(=O)C(C)(C)N)C(=O)N2CCCC3(C2)C(=O)N(C)CC3c2ccccc2)cc1 (single isomer, unassigned) [Example 6.0(ii), 2-Amino-N-[(R)-1-(4-methoxy-benzyloxymethyl)-2-((4S,5R)-2-methyl-1-oxo-4-phenyl-2,7-diaza-spiro[4.5]dec-7-yl)-2-oxo-ethyl]-2-methyl-propionamide or 2-Amino-N-[(R)-1-(4-methoxy-benzyloxymethyl)-2-(4R,5S)-2-methyl-1-oxo-4-phenyl-2,7-diaza-spiro[4.5]dec-7-yl)-2-oxo-ethyl]-2-methyl-propionamide]	0.0005 µM	0.109 µM	
CN1CC(c2ccccc2)C2(CCCN(C(=O)[C@@H](COCc3ccc(F)cc3)NC(=O)C(C)(C)N)C2)C1=O (single isomer, unassigned) [Example 7.0, 2-Amino-N-[(R)-1-(4-fluoro-benzyloxymethyl)-2-(4S,5R)-2-methyl-1-oxo-4-phenyl-2,7-diaza-spiro[4.5]dec-7-yl)-2-oxo-ethyl]-2-methyl-propionamide or 2-Amino-N-[(R)-1-(4-fluoro-benzyloxymethyl)-2-(4R,5S)-2-methyl-1-oxo-4-phenyl-2,7-diaza-spiro[4.5]dec-7-yl)-2-oxo-ethyl]-2-methyl-propionamide]	0.00017 µM	0.138 µM	
CN1C[C@@H](c2ccc(F)cc2)[C@@]2(CCCN(C(=O)[C@@H](COCc3ccccc3)NC(=O)C(C)(C)N)C2)C1=O [Example 1.2, 2-Amino-N-((2R)-3-(benzyloxy)-1-((4S,5R)-4-(4-fluorophenyl)-2-methyl-1-oxo-2,7-diazaspiro[4.5]decan-7-yl)-1-oxopropan-2-yl)-2-methylpropanamide]	0.0001 µM	0.055 µM	

The next lines start with the values.

EC50 [1]	EC50 [2]	Emax ([1]; CHO-K1, relative to Emax induced by MK-0677 (defined as 100%))	Compound
0.0006 µM	0.154 µM	93%	CC(C)(N)C(=O)N[C@H](COCc1ccccc1)C(=O)N1CCCC2(C1)C(=O)NCC2c1ccccc1 (single isomer, unassigned) [Example 1.49]
0.0002 µM	0.067 µM		Cc1ccccc1C1CN(C)C(=O)C12CCCN(C(=O)[C@@H](COCc1ccccc1)NC(=O)C(C)(C)N)C2 (single isomer, unassigned) [Example 1.51]
0.0011 µM	0.456 µM		CN1C(=O)C2(CCCN(C(=O)[C@@H](COCc3ccccc3)NC(=O)C(C)(C)N)C2)C1c1ccccc1 (single isomer, unassigned) [Example 2.0(ii)]
0.0004 µM	0.086 µM		CN1CC(c2ccccc2)C2(CCCN(C(=O)[C@@H](COCc3ccccc3)NC(=O)C(C)(C)N)CC2)C1=O (single isomer, unassigned) [Example 9.0(iv)]
